# From patent US12128035B2, “Activating pyruvate kinase R” (Novo Nordisk Health Care AG, priority 2021, dated 2024)
# Tested on: ATP blood levels
# Assay: Phase 1 SAD/MAD: blood ATP (LC-MS/MS) in healthy volunteers
# Format: in vivo, human
# Experimental: In this study, SAD/MAD cohorts are randomized (3 to 1) to receive Compound 1 or placebo (P). Compound 1 was evaluated first in 4 healthy SAD cohorts and 4 healthy MAD (14-day dosing period) cohorts. Based on the safety, and PK/PD profile from HS, Compound 1 is then evaluated in 1 SCD SAD cohort and 2 SCD MAD cohorts. Specifically, based on the safety and pharmacokinetic/pharmacodynamics (PK/PD) profile in healthy volunteer studies, Compound 1 is evaluated in patients (pts) with SCD, first in a single dose (SD or SAD) cohort and then in multiple-dose (MD or MAD) cohorts (14-day and 12-week). Safety assessments include AEs, vital signs, ECGs and laboratory parameters. PK/PD blood sampling was performed on Day 1 (SAD/MAD) and Day 14 (MAD) and up to 72 h after the last dose and at the end-of-study visit. PD parameters included 2,3-DPG, ATP, and p50 in all cohorts with additional PD studies (including oxygen scan) performed only in the SCD cohorts. PD parameters included 2,3-DPG, ATP, p50, RBC deformability with controlled deoxygenation and reoxygenation (Lorrca® oxygen scan) and varying osmolality (Lorrca® osmoscan)). To maintain study blind, pt identifiers were removed when needed.
# In the MAD cohorts, the subjects' blood ATP levels were measured […] by a qualified LC-MS/MS method for the quantitation of ATP in blood. […] Table 20A reports the median percentage change in blood ATP levels, relative to baseline, measured over time after the first dose on days 1 and 14 in healthy volunteers who received daily doses of Compound 1 (100 mg BID, 200 mg BID, 300 mg BID, or 400 mg QD) or placebo for 14 days. Table 20B reports the mean percentage change in ATP blood levels, relative to baseline, measured over time after the first dose on days 1 and 14 in healthy volunteers who received daily doses of Compound 1 (100 mg BID, 200 mg BID, 300 mg BID, or 400 mg QD) for 14 days.
# The following procedures are employed for the analysis of ATP and 2,3-DPG in human whole blood K2EDTA using a protein precipitation extraction procedure and analysis by LC-MS/MS.
# The following procedures are used for sample extraction prior to analysis via LC-MS/MS. 15.0 μL of the calibration standards, quality controls, matrix blanks, and samples are aliquoted into a 96-well plate. 50.0 μL of the internal standard spiking solution is added to all samples on the plate, with the exception of the matrix blank samples; 50.0 μL of water is added to the matrix blank samples. Subsequently, 150 μL of water is added to all samples on the plate. The plate is then covered and agitated by vortex at high speed for ten minutes, after which 750 μL of methanol is added to all samples on the plate. The plate is covered and agitated by vortex for approximately 1 minute. The plate is then centrifuged at approximately 3500 RPM at approximately 4° C. for five minutes. After centrifugation, a liquid handler is used to transfer 50 μL of each sample to a new 96-well plate, and 200 μL of acetonitrile is added to all samples on the plate. The newly prepared plate is covered and agitated by vortex for approximately 1 minute. The plate is then centrifuged at approximately 3500 RPM at approximately 4° C. for 2 minutes.
# [1] = HV 100 mg BID, Day 1, 0 h after first daily dose
# [2] = HV 100 mg BID, Day 1, 6 h after first daily dose
# [3] = HV 100 mg BID, Day 1, 8 h after first daily dose
# [4] = HV 100 mg BID, Day 1, 12 h after first daily dose
# [5] = HV 100 mg BID, Day 1, 16 h after first daily dose
# [6] = HV 100 mg BID, Day 1, 24 h after first daily dose
# [7] = HV 100 mg BID, Day 14, 0 h after first daily dose
# [8] = HV 100 mg BID, Day 14, 6 h after first daily dose
# [9] = HV 100 mg BID, Day 14, 8 h after first daily dose
# [10] = HV 100 mg BID, Day 14, 12 h after first daily dose
# [11] = HV 100 mg BID, Day 14, 16 h after first daily dose
# [12] = HV 100 mg BID, Day 14, 24 h after first daily dose
# [13] = HV 100 mg BID, Day 14, 48 h after first daily dose
# [14] = HV 100 mg BID, Day 14, 72 h after first daily dose
# [15] = HV 200 mg BID, Day 1, 0 h after first daily dose
# [16] = HV 200 mg BID, Day 1, 6 h after first daily dose
# [17] = HV 200 mg BID, Day 1, 8 h after first daily dose
# [18] = HV 200 mg BID, Day 1, 12 h after first daily dose
# [19] = HV 200 mg BID, Day 1, 16 h after first daily dose
# [20] = HV 200 mg BID, Day 1, 24 h after first daily dose
# [21] = HV 200 mg BID, Day 14, 0 h after first daily dose
# [22] = HV 200 mg BID, Day 14, 6 h after first daily dose
# [23] = HV 200 mg BID, Day 14, 8 h after first daily dose
# [24] = HV 200 mg BID, Day 14, 12 h after first daily dose
# [25] = HV 200 mg BID, Day 14, 16 h after first daily dose
# [26] = HV 200 mg BID, Day 14, 24 h after first daily dose
# [27] = HV 200 mg BID, Day 14, 48 h after first daily dose
# [28] = HV 200 mg BID, Day 14, 72 h after first daily dose
# [29] = HV 300 mg BID, Day 1, 0 h after first daily dose
# [30] = HV 300 mg BID, Day 1, 6 h after first daily dose
# [31] = HV 300 mg BID, Day 1, 8 h after first daily dose
# [32] = HV 300 mg BID, Day 1, 12 h after first daily dose
# [33] = HV 300 mg BID, Day 1, 16 h after first daily dose
# [34] = HV 300 mg BID, Day 1, 24 h after first daily dose
# [35] = HV 300 mg BID, Day 14, 0 h after first daily dose
# [36] = HV 300 mg BID, Day 14, 6 h after first daily dose
# [37] = HV 300 mg BID, Day 14, 8 h after first daily dose
# [38] = HV 300 mg BID, Day 14, 12 h after first daily dose
# [39] = HV 300 mg BID, Day 14, 16 h after first daily dose
# [40] = HV 300 mg BID, Day 14, 24 h after first daily dose
# [41] = HV 300 mg BID, Day 14, 48 h after first daily dose
# [42] = HV 300 mg BID, Day 14, 72 h after first daily dose
# [43] = HV 400 mg QD, Day 1, 0 h after first daily dose
# [44] = HV 400 mg QD, Day 1, 6 h after first daily dose
# [45] = HV 400 mg QD, Day 1, 8 h after first daily dose
# [46] = HV 400 mg QD, Day 1, 12 h after first daily dose
smiles,measurement,setting,value
"O=C([C@H](CO)c1ccccc1)N1CC2=C(C1)CN(S(=O)(=O)c1cnc3c(c1)OCCO3)C2 (single isomer, unassigned) [Compound 1]",Mean Percentage Change in ATP Levels,[1],0%
same,Median Percentage Change in ATP Levels,[1],0%
same,Mean Percentage Change in ATP Levels,[2],−5.6%
same,Median Percentage Change in ATP Levels,[2],−5.7%
same,Mean Percentage Change in ATP Levels,[3],−2.0%
same,Median Percentage Change in ATP Levels,[3],0.0%
same,Mean Percentage Change in ATP Levels,[4],−0.6%
same,Median Percentage Change in ATP Levels,[4],−1.2%
same,Mean Percentage Change in ATP Levels,[5],1.9%
same,Median Percentage Change in ATP Levels,[5],3.3%
same,Mean Percentage Change in ATP Levels,[6],4.4%
same,Median Percentage Change in ATP Levels,[6],5.7%
same,Mean Percentage Change in ATP Levels,[7],49%
same,Median Percentage Change in ATP Levels,[7],42%
same,Mean Percentage Change in ATP Levels,[8],45%
same,Median Percentage Change in ATP Levels,[8],44%
same,Mean Percentage Change in ATP Levels,[9],49%
same,Median Percentage Change in ATP Levels,[9],48%
same,Mean Percentage Change in ATP Levels,[10],45%
same,Median Percentage Change in ATP Levels,[10],45%
same,Mean Percentage Change in ATP Levels,[11],47%
same,Median Percentage Change in ATP Levels,[11],45%
same,Mean Percentage Change in ATP Levels,[12],55%
same,Median Percentage Change in ATP Levels,[12],55%
same,Mean Percentage Change in ATP Levels,[13],51%
same,Median Percentage Change in ATP Levels,[13],52%
same,Mean Percentage Change in ATP Levels,[14],47%
same,Median Percentage Change in ATP Levels,[14],49%
same,Mean Percentage Change in ATP Levels,[15],0%
same,Median Percentage Change in ATP Levels,[15],0%
same,Mean Percentage Change in ATP Levels,[16],1.7%
same,Median Percentage Change in ATP Levels,[16],−4.3%
same,Mean Percentage Change in ATP Levels,[17],4.7%
same,Median Percentage Change in ATP Levels,[17],5.4%
same,Mean Percentage Change in ATP Levels,[18],6.7%
same,Median Percentage Change in ATP Levels,[18],4.3%
same,Mean Percentage Change in ATP Levels,[19],5.6%
same,Median Percentage Change in ATP Levels,[19],6.0%
same,Mean Percentage Change in ATP Levels,[20],−0.2%
same,Median Percentage Change in ATP Levels,[20],1.1%
same,Mean Percentage Change in ATP Levels,[21],59%
same,Median Percentage Change in ATP Levels,[21],62%
same,Mean Percentage Change in ATP Levels,[22],50%
same,Median Percentage Change in ATP Levels,[22],48%
same,Mean Percentage Change in ATP Levels,[23],56%
same,Median Percentage Change in ATP Levels,[23],58%
same,Mean Percentage Change in ATP Levels,[24],56%
same,Median Percentage Change in ATP Levels,[24],56%
same,Mean Percentage Change in ATP Levels,[25],53%
same,Median Percentage Change in ATP Levels,[25],57%
same,Mean Percentage Change in ATP Levels,[26],66%
same,Median Percentage Change in ATP Levels,[26],65%
same,Mean Percentage Change in ATP Levels,[27],62%
same,Median Percentage Change in ATP Levels,[27],70%
same,Mean Percentage Change in ATP Levels,[28],57%
same,Median Percentage Change in ATP Levels,[28],54%
same,Mean Percentage Change in ATP Levels,[29],0%
same,Median Percentage Change in ATP Levels,[29],0%
same,Mean Percentage Change in ATP Levels,[30],−4.5%
same,Median Percentage Change in ATP Levels,[30],−7.6%
same,Mean Percentage Change in ATP Levels,[31],−2.0%
same,Median Percentage Change in ATP Levels,[31],−2.4%
same,Mean Percentage Change in ATP Levels,[32],−0.6%
same,Median Percentage Change in ATP Levels,[32],0.9%
same,Mean Percentage Change in ATP Levels,[33],−0.5%
same,Median Percentage Change in ATP Levels,[33],−1.1%
same,Mean Percentage Change in ATP Levels,[34],2.2%
same,Median Percentage Change in ATP Levels,[34],1.8%
same,Mean Percentage Change in ATP Levels,[35],46%
same,Median Percentage Change in ATP Levels,[35],46%
same,Mean Percentage Change in ATP Levels,[36],51%
same,Median Percentage Change in ATP Levels,[36],51%
same,Mean Percentage Change in ATP Levels,[37],52%
same,Median Percentage Change in ATP Levels,[37],50%
same,Mean Percentage Change in ATP Levels,[38],49%
same,Median Percentage Change in ATP Levels,[38],51%
same,Mean Percentage Change in ATP Levels,[39],52%
same,Median Percentage Change in ATP Levels,[39],53%
same,Mean Percentage Change in ATP Levels,[40],56%
same,Median Percentage Change in ATP Levels,[40],52%
same,Mean Percentage Change in ATP Levels,[41],57%
same,Median Percentage Change in ATP Levels,[41],58%
same,Mean Percentage Change in ATP Levels,[42],48%
same,Median Percentage Change in ATP Levels,[42],49%
same,Mean Percentage Change in ATP Levels,[43],0%
same,Median Percentage Change in ATP Levels,[43],0%
same,Mean Percentage Change in ATP Levels,[44],−1.2%
same,Median Percentage Change in ATP Levels,[44],−1.7%
same,Mean Percentage Change in ATP Levels,[45],−2.9%
same,Median Percentage Change in ATP Levels,[45],−4.5%
same,Mean Percentage Change in ATP Levels,[46],2.4%
same,Median Percentage Change in ATP Levels,[46],3.5%
same,Mean Percentage Change in ATP Levels,"HV 400 mg QD, Day 1, 16 h after first daily dose",−2.2%
